Tests used:
[1] = system: Calu6; experiment: Cell proliferation assay (CellTiter-Glo); type: cell-based; conditions: Homo sapiens, Calu-6; NSCLC; 72 hours, 0.5% fetal bovine serum; read-out: antiproliferative activity IC50, Calu6
Experimental: (§1) Cell Proliferation Assay:
(§2) Cancer cell lines were plated at 5,000 to 10,000 per well in 96-well flat bottomed plates with various concentration of compounds. The cells were incubated with compounds for 72 hours in the presence of 0.5% of fetal bovine serum. Growth inhibition was accessed by adenosine triphosphate (ATP) content assay using Promega CellTiter-Glo kit. Promega CellTiter-Glo kit is an ATP monitoring system based on firefly luciferase. Briefly, 16 μl of mammalian cell lysis and substrate solution was added to 84 μl of culture medium per well to lyse the cells and stabilize the ATP. The mixture was shaken and incubated for 30 minutes and subsequently the luminescence was measured.

[2] = system: CFPAC-1; experiment: Cell proliferation assay (CellTiter-Glo); type: cell-based; conditions: Homo sapiens, Pancreas, 72 hours, 0.5% fetal bovine serum, read-out: antiproliferative activity IC50, CFPAC-1
Experimental: as §1, §2

[3] = system: PANC-1; experiment: Cell proliferation assay (CellTiter-Glo); type: cell-based; conditions: Homo sapiens, Pancreas, 72 hours, 0.5% fetal bovine serum, read-out: antiproliferative activity IC50, PANC-1
Experimental: as §1, §2

[4] = system: MiaPaca1; experiment: Cell proliferation assay (CellTiter-Glo); type: cell-based; conditions: Pancreas; 72 hours, 0.5% fetal bovine serum; read-out: antiproliferative activity IC50, MiaPaca1
Experimental: as §1, §2

[5] = system: CaPan2; experiment: Cell proliferation assay (CellTiter-Glo); type: cell-based; conditions: Homo sapiens, Capan-2; Pancreas; 72 hours, 0.5% fetal bovine serum; read-out: antiproliferative activity IC50, CaPan2
Experimental: as §1, §2

[6] = system: WiDr; experiment: Cell proliferation assay (CellTiter-Glo); type: cell-based; conditions: Homo sapiens, Colon, 72 hours, 0.5% fetal bovine serum, read-out: antiproliferative activity IC50, WiDr
Experimental: as §1, §2

[7] = system: MDA-MB-231; experiment: Cell proliferation assay (CellTiter-Glo); type: cell-based; conditions: Homo sapiens, Breast, 72 hours, 0.5% fetal bovine serum, read-out: antiproliferative activity IC50, MDA-MB-231
Experimental: as §1, §2

[8] = system: SW1990; experiment: Cell proliferation assay (CellTiter-Glo); type: cell-based; conditions: Homo sapiens, Pancreas, 72 hours, 0.5% fetal bovine serum, read-out: antiproliferative activity IC50, SW1990
Experimental: as §1, §2

[9] = system: CaPan1; experiment: Cell proliferation assay (CellTiter-Glo); type: cell-based; conditions: Homo sapiens, CAPAN-1; Pancreas; 72 hours, 0.5% fetal bovine serum; read-out: antiproliferative activity IC50, CaPan1
Experimental: as §1, §2

[10] = target: T1, PI3Kα (p110α/p85α) (Homo sapiens, UniProt P42336); experiment: PI3Kα ADP-Glo assay; type: biochemical; conditions: 20 μM PIP2, 10 μM ATP, 30 minutes
T1 construct: GST (N); made in house; host or cells: Baculovirus-infected Sf9 cells
T1 sequence (P42336 whole entry): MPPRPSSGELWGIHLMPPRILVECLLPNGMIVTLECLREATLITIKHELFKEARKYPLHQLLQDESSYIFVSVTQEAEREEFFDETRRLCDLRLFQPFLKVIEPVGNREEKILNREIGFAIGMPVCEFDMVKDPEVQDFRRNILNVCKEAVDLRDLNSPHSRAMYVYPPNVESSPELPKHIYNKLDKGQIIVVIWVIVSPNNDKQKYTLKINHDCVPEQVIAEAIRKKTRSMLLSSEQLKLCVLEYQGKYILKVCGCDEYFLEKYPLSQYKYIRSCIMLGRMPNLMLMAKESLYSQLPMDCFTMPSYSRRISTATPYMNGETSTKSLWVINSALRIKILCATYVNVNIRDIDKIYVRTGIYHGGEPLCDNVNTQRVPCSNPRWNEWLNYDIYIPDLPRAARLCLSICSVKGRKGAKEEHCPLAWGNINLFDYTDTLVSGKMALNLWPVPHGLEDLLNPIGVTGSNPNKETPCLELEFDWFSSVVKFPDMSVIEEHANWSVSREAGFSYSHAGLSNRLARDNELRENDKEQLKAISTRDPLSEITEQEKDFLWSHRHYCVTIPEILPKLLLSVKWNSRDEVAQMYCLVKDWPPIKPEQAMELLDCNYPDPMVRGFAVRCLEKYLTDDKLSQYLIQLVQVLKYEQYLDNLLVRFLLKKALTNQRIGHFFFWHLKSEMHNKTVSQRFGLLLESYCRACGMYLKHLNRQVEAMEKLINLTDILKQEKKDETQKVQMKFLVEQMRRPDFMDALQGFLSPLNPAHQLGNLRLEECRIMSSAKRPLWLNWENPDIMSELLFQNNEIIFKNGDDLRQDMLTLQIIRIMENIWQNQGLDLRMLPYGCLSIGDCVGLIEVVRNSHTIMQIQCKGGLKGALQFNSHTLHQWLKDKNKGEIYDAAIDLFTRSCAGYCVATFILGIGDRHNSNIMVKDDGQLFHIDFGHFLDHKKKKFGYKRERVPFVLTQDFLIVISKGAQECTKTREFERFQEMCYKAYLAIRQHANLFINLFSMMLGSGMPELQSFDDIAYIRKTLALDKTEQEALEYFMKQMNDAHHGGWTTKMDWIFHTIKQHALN
T1 sequence (P27986 whole entry partner): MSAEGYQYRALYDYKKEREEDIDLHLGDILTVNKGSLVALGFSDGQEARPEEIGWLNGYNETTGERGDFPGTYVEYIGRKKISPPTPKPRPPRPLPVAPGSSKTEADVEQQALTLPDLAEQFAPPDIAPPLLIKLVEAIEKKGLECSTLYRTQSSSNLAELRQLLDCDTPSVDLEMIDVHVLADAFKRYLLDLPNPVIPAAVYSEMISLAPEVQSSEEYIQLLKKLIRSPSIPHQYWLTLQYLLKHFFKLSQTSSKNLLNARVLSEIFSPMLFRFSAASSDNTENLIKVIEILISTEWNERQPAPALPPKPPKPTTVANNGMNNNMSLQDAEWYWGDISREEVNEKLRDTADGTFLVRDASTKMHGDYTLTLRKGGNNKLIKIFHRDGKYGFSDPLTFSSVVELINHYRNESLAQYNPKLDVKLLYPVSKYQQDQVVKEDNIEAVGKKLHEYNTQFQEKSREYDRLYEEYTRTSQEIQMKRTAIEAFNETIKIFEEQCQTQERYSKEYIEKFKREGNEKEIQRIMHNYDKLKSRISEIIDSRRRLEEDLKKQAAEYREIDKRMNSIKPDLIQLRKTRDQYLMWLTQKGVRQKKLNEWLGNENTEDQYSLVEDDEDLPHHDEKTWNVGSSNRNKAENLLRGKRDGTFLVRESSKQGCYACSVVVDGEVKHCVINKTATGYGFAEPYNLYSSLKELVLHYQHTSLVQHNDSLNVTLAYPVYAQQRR
Summary of the method: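 Recombinant full-length human GST-p110α/His-p85α, co-expressed in Sf9 cells, was incubated 30 min at room temperature with 20 μM PIP2 and 10 μM ATP. The buffer was 50 mM HEPES pH 7.4, 150 mM NaCl, 5 mM MgCl2, 1 mM DTT, 3 µM orthovanadate and 0.5% DMSO. ADP formed was detected by ADP-Glo luminescence.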

[11] = target: T2, mTor serine/threonine protein kinase (Homo sapiens, UniProt P42345); experiment: mTor kinase radioisotope assay; type: biochemical; conditions: 70 uM ATP, 40 minutes; read-out: m-TOR IC50
T2 construct: FLAG; made in house; host or cells: Baculovirus expression system in Sf21 cells
Summary of the method: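 FLAG-tagged full-length recombinant human mTor from baculovirus/Sf21, incubated with p70S6K C-terminal fragment (2 mg/ml) and 70 uM ATP plus 33P-ATP tracer in 50 mM HEPES pH 7.5, 3 mM MnCl2, 40 min at room temperature. Phosphoric acid stop, filtermat capture, scintillation counting; IC50 from sigmoidal dose-response fit.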

[12] = system: HDACs (HeLa cell nuclear extracts); experiment: HDAC enzymatic activity, Biomol Color de Lys system; type: biochemical; conditions: 1 hour, 25° C.
Summary of the method: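 HeLa nuclear extract incubated with serially diluted compound and […] artificial substrate in 50 mM Tris/Cl pH 8.0, 137 mM NaCl, 2.7 mM KCl, 1 mM MgCl2. Run 1 h at 25 °C, stopped with developer. Fluorescence read (ex 350-380, em 440-460 nm); IC50 from sigmoidal dose-response fit.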

[13] = system: SWI-116; experiment: Cell proliferation assay (CellTiter-Glo); type: cell-based; conditions: Colon; 72 hours, 0.5% fetal bovine serum; read-out: antiproliferative activity IC50, SWI-116
Experimental: as §1, §2

[14] = target: T3, PI3Kβ (p110β/p85α) (Homo sapiens, UniProt P42338); experiment: PI3Kβ ADP-Glo assay; type: biochemical; conditions: 20 μM PIP2, 10 μM ATP, 90 minutes
T3 construct: His (N); made in house; host or cells: Baculovirus-infected Sf9 cells
T3 sequence (P42338 whole entry): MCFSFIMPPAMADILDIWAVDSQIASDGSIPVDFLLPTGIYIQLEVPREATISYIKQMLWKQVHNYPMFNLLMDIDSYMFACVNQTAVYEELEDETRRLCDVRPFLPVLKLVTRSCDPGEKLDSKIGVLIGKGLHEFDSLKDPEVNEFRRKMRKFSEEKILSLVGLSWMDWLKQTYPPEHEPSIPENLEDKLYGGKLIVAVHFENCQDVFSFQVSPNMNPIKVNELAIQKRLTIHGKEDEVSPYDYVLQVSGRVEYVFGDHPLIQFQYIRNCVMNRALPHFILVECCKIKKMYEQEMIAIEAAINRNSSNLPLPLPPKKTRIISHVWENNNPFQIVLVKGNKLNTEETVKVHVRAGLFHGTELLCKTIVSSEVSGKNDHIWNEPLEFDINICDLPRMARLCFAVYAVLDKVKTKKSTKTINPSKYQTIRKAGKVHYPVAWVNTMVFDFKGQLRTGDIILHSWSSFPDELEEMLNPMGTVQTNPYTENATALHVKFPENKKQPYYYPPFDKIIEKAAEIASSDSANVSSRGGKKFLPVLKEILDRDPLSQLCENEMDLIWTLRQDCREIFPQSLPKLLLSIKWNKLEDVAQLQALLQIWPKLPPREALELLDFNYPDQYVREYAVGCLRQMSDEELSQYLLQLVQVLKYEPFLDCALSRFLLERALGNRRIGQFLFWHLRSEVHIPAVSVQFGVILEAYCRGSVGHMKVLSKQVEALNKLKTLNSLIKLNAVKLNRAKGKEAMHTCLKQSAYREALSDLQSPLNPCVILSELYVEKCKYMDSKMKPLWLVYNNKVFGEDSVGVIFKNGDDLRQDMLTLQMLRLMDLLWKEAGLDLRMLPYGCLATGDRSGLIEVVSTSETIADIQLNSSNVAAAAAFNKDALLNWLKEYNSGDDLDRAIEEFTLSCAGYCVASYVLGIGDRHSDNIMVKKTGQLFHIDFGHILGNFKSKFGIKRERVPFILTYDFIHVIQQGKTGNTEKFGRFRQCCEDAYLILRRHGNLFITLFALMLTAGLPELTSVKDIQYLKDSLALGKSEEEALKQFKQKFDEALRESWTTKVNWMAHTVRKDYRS
T3 sequence (P27986 whole entry partner): as the sequence (P27986 whole entry partner) above
Experimental: (B) an In Vitro Assay which Determines the Ability of a Test Compound to Inhibit PI3Kβ.
Activity of PI3Kβ was measured using ADP-Glo assay from Promega. […], a complex of N-terminal His-tagged recombinant full-length human p110β (GenBank, Accession No. NM_006219) and untagged recombinant full length human p85α (GenBank Accession No. XM—043865) were co-expressed in a Baculovirus infected Sf9 cell expression system. The ADP-Glo assay was performed to measure the amount of ADP generated from ATP hydrolysis coupled with PIP2 phosphorylation by the purified recombinant PI3Kβ (p110β/p85α). PI3Kβ was incubated with 20 μM PIP2 substrate in the reaction buffer (10 mM Tris-HCl, pH 7.5, 50 mM NaCl, 5 mM MgCl2, 10 μM ATP and 0.5% DMSO) for 90 minutes at room temperature. The ADP generated was then detected by ADP-Glo assay from Promega, a luminescent ADP detection assay. The ADP-Glo assay is performed in two steps; first, after the kinase reaction, ADP-Glo Reagent is added to terminate the kinase reaction and deplete the remaining ATP. Second, the Kinase Detection Reagent is added to simultaneously convert ADP to ATP and allow the newly synthesized ATP to be measured using a luciferase/luciferin reaction.

[15] = system: OPM-2; experiment: Cell proliferation assay (CellTiter-Glo); type: cell-based; conditions: Homo sapiens, Multiple Myeloma, 72 hours, 0.5% fetal bovine serum, read-out: antiproliferative activity IC50, OPM-2
Experimental: as §1, §2

IC50 [1] [nM] | IC50 [3] [nM] | IC50 [4] [nM] | IC50 [7] [nM] | IC50 [8] [nM] | IC50 [10] [nM] | IC50 [11] [nM] | IC50 [12] [nM] | IC50 [14] [nM] | melting point [°C] | SMILES | IC50 [2] [nM] | IC50 [5] [nM] | IC50 [6] [nM] | IC50 [9] [nM] | IC50 [13] [nM] | IC50 [15] [nM]
100 to 1000 | 1000 to 10000 | 1000 to 10000 | > 10000 | 10 to 100 |  |  |  |  |  | Cn1c(=O)n(-c2ccc(C(C)(C)C#N)cc2)c2c3cc(-c4cnc5ccccc5c4)ccc3ncc21 [BEZ-235, 2-methyl-2-(4-(3-methyl-2-oxo-8-(quinolin-3-yl)-2,3-dihydro-1H-imidazo[4,5-c]quinolin-1-yl)phenyl)propanenitrile, reference compound] | 1000 to 10000 | 1000 to 10000 | 1000 to 10000 | 100 to 1000 |  | 
 |  |  |  |  | < 100 | 100 to 1000 | < 100 |  |  | CC(c1cc2nc(-c3cccc4[nH]ncc34)nc(N3CCOCC3)c2s1)N(C)c1ncc(C(=O)NO)cn1 (stereo not shown) [Compound 70] |  |  |  |  | 10 to 100 | 
 |  |  |  |  | < 100 |  | < 100 | < 100 | 190 to 194 | O=C(NO)c1cnc(N(CCO)Cc2cc3nc(-c4cccc5[nH]ncc45)nc(N4CCOCC4)c3s2)nc1 [Compound 86, 2-(((2-(1H-indazol-4-yl)-4-morpholinothieno[3,2-d]pyrimidin-6-yl)methyl)(2-hydroxyethyl)amino)-N-hydroxypyrimidine-5-carboxamide] |  |  |  |  |  | 
10 to 100 | 10 to 100 | 10 to 100 | 10 to 100 | 10 to 100 | < 100 | < 100 | < 100 |  | 160 to 164 | CN(Cc1cc2nc(-c3cccc(CO)c3)nc(N3CCOCC3)c2s1)c1ncc(C(=O)NO)cn1 [Compound 138, N-hydroxy-2-(((2-(3-(hydroxymethyl)phenyl)-4-morpholinothieno[3,2-d]pyrimidin-6-yl)methyl)(methyl)amino)pyrimidine-5-carboxamide] | 10 to 100 | 10 to 100 | 10 to 100 | 10 to 100 |  | < 10
